# Literature values as cited in patent US20250114388A1, “ACTIVE PHARMACEUTICAL INGREDIENT COMPOSITIONS AND PREPARATION AND USES THEREOF” (Dr. Anti Fungus, LLC, priority 2023, published 2025).
# *1 amine or outer side, *2 acyl side, *3 side chain or, on linkers, in order; H or OH if unused. Where a SMILES comes first, the peptide text is derived from it. Bridges are numbered along the chain shown (N, C = ends). [ ]: non-standard residue; d: D form. The star is where a group is joined. pTerphenylCO(4''-OnC5H11) = CCCCCOc1ccc(-c2ccc(-c3ccc(C(=O)*)cc3)cc2)cc1; Orn(4R-OH,5R-OH) = O=C([C@H](C[C@@H](O)[C@@H](O)N[*:3])N[*:1])[*:2]; hTyr(3S-OH,4S-OH) = N[C@H](C(=O)O)[C@H](O)[C@@H](O)c1ccc(O)cc1; Pro(3S-OH,4S-Me) = C[C@H]1CN[C@H](C(=O)O)[C@H]1O; Hyp = O=C(O)[C@@H]1C[C@@H](O)CN1
row,solubility in water,Structure (SMILES)
1,sparingly soluble,OC(Cn1cncn1)(Cn1cncn1)c1ccc(F)cc1F [fluconazole]
2,insoluble,Clc1ccc(COC(Cn2ccnc2)c2ccc(Cl)cc2Cl)cc1 (centres unmarked) [econazole]
3,insoluble,Cc1cccc(N(C)C(=S)Oc2ccc3ccccc3c2)c1 [tolnaftate]
4,insoluble,CCC(C)n1ncn(-c2ccc(N3CCN(c4ccc(OCC5COC(Cn6cncn6)(c6ccc(Cl)cc6Cl)O5)cc4)CC3)cc2)c1=O (centres unmarked) [itraconazole]
5,sparingly soluble,CN(C/C=C/C#CC(C)(C)C)Cc1cccc2ccccc12 [terbinafine]
6,insoluble,Clc1ccccc1C(c1ccccc1)(c1ccccc1)n1ccnc1 [clotrimazole]
7,insoluble,Clc1ccc(COC(Cn2ccnc2)c2ccc(Cl)cc2Cl)c(Cl)c1 (centres unmarked) [miconazole]

row,Structure (SMILES),solubility in water
1,C[C@@H]1[C@H](O)[C@@H](C)/C=C/C=C/CC/C=C/C=C/C=C/C=C/C(O[C@H]2O[C@H](C)[C@@H](O)[C@H](N)[C@@H]2O)CC2O[C@](O)(CC(O)C(O)CCC(O)CC(O)CC(O)CC(=O)O[C@H]1C)CC(O)C2C(=O)O (some centres unmarked) [nystatin],sparingly soluble
2,CC(=O)N1CCN(c2ccc(OCC3COC(Cn4ccnc4)(c4ccc(Cl)cc4Cl)O3)cc2)CC1 (centres unmarked) [ketoconazole],insoluble
3,"CCCCCOc1ccc(-c2ccc(-c3ccc(C(=O)N[C@H]4C[C@@H](O)[C@@H](O)NC(=O)[C@@H]5[C@@H](O)[C@@H](C)CN5C(=O)[C@H]([C@@H](C)O)NC(=O)[C@H]([C@H](O)[C@@H](O)c5ccc(O)cc5)NC(=O)[C@@H]5C[C@@H](O)CN5C(=O)[C@H]([C@@H](C)O)NC4=O)cc3)cc2)cc1 [anidulafungine] ({pTerphenylCO(4''-OnC5H11)}-[Orn(4R-OH,5R-OH)]T[Hyp][hTyr(3S-OH,4S-OH)]T[Pro(3S-OH,4S-Me)]; lactam 1-C)",insoluble
4,C[C@@H]1[C@H](O)[C@@H](C)/C=C/C=C/C=C/C=C/C=C/C=C/C=C/[C@H](O[C@@H]2O[C@H](C)[C@@H](O)[C@H](N)[C@@H]2O)C[C@@H]2O[C@](O)(C[C@@H](O)C[C@@H](O)[C@H](O)CC[C@@H](O)C[C@@H](O)CC(=O)O[C@H]1C)C[C@H](O)[C@H]2C(=O)O [amphotericin B],insoluble
